Laboratory results reported in patent publication US20060069132A1, “Azolecarboxamide herbicides” (priority 2004, published 2006).

Experiments:
morningglory = test: Test A pre-/postemergence herbicide test; type: in vivo, Ipomoea spp.
In short: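 Plants are held in greenhouse about ten days after treatment, then compared with untreated controls and scored 0 (no effect) to 100 (complete control). Preemergence dosing is a directed soil spray on sown sandy loam; postemergence dosing is spray to runoff at 2–10 cm height.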

eastern black nightshade = test: Test C pre-/postemergence herbicide test; type: in vivo, Solanum ptycanthum; conditions: for Plant response rating, Nightshade / Plant response rating (0 = no effect, 100 = complete control), Nightshade: preemergence; for Nightshade plant response rating: Preemergence, scale 0 to 100, 0 no effect, 100 complete control
In short: (§1)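 Greenhouse-grown plants were evaluated visually 12 to 14 days after treatment, with 100 meaning complete control and 0 no effect. Application was preemergence, or postemergence at 2 to 18 cm.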

[1] = system: common (oilseed) sunflower; test: Test C pre-/postemergence herbicide test; type: in vivo, Helianthus annuus; conditions: for Plant response rating, Sunflower / Plant response rating (0 = no effect, 100 = complete control), Sunflower: preemergence; for Sunflower plant response rating: Preemergence, scale 0 to 100, 0 no effect, 100 complete control
In short: as §1

rice = test: Test C flooded paddy test; type: in vivo, Oryza sativa; conditions: for Plant response rating, Rice: visual rating after 12 to 14 days
In short: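 Postemergence sprays applied to plants 2 to 18 cm tall (1- to 4-leaf stage); paddy species grown to 2-leaf stage under flooding. After 12 to 14 days in greenhouse, visual rating versus untreated controls on 0–100 scale (0 no effect, 100 complete control).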

bermudagrass = test: Test C pre-/postemergence herbicide test; type: in vivo, Cynodon dactylon
In short: as §1

[2] = Postemergence, 500 g ai/ha, 0 to 100 scale, 0 no effect, 100 complete control
[3] = Postemergence, 2000 g ai/ha, 0 to 100 scale, 0 no effect, 100 complete control
[4] = Preemergence, 500 g ai/ha, visual rating, 0 to 100 scale (0 no effect, 100 complete control)
[5] = Preemergence, 2000 g ai/ha, 0 to 100 scale, 0 no effect, 100 complete control
[6] = 125 g ai/ha, scale 0 (no effect) to 100 (complete control), visual, 12 to 14 days
[7] = 250 g ai/ha, scale 0 to 100 (0 no effect, 100 complete control), visual, 12 to 14 days
[8] = 62 g ai/ha, scale 0 to 100 (0 no effect, 100 complete control)
[9] = 125 g ai/ha, scale of 0 to 100, 0 is no effect, 100 is complete control
[10] = 250 g ai/ha, scale of 0 to 100, 0 is no effect, 100 is complete control
[11] = 500 g ai/ha, scale 0 to 100 (0 no effect, 100 complete control)
[12] = 125 g ai/ha, scale 0 (no effect) to 100 (complete control), visual, 12 to 14 days, preemergence
[13] = 250 g ai/ha, scale 0 to 100 (0 no effect, 100 complete control), visual, 12 to 14 days, preemergence
[14] = Preemergence, 2000 g ai/ha, visual rating, 0 to 100 scale (0 no effect, 100 complete control)
[15] = preemergence, 500 g ai/ha, visual injury, 0 to 100 scale (0 no effect, 100 complete control)
[16] = 500 g ai/ha, scale 0 to 100 (0 no effect, 100 complete control), visual, 12 to 14 days
[17] = 125 g ai/ha, scale 0 to 100 (0 no effect, 100 complete control)
[18] = 62 g ai/ha, preemergence, scale 0 to 100, 0 no effect, 100 complete control
[19] = 250 g ai/ha, scale 0-100, preemergence
[20] = Preemergence, 500 g ai/ha, scale 0 to 100, 0 no effect, 100 complete control

Row | Compound | Plant response rating, Morningglory (morningglory; [2]) | Plant response rating, Morningglory (morningglory; [3]) | Morningglory plant response rating (morningglory; [4]) | Morningglory plant response rating (morningglory; [5]) | Plant response rating (0 = no effect, 100 = complete control), Nightshade (eastern black nightshade; 62 g ai/ha) | Plant response rating, Nightshade (eastern black nightshade; [6]) | Plant response rating, Nightshade (eastern black nightshade; [7]) | Plant response rating (0 = no effect, 100 = complete control), Sunflower ([1]; 62 g ai/ha) | Plant response rating, Sunflower [1, 6] | Plant response rating, Sunflower [1, 7] | Rice plant response rating (rice; [8]) | Rice plant response rating (rice; [9]) | Rice plant response rating (rice; [10]) | Plant response rating, Rice (rice; [11]) | Plant response rating (0 = no effect, 100 = complete control), Bermudagrass (bermudagrass; 62 g ai/ha, preemergence) | Plant response rating, Bermudagrass (bermudagrass; [12]) | Plant response rating, Bermudagrass (bermudagrass; [13]) | Morningglory plant response rating (morningglory; [2]) | Morningglory plant response rating (morningglory; [14]) | Bermudagrass plant response rating (bermudagrass; [20]) | other results
1 | CCn1nc(C(C)(C)C)cc1C(=O)Nc1cccc(C(=O)NCC2CC2)c1 [Compound 62] | 10 | 20 | 20 | 75 | 80 | 90 | 95 | 0 | 0 | 0 | 15 | 25 | 45 | 65 | 10 | 90 | 95 |  |  |  | Plant response rating, Nightshade (eastern black nightshade; 31 g ai/ha, scale 0 to 100): 80; Plant response rating, Sunflower ([1]; 31 g ai/ha, scale 0 to 100): 0; Plant response rating, Bermudagrass (bermudagrass; 31 g ai/ha, preemergence, scale 0 to 100): 0
2 | CCNC(=O)c1ccc(F)c(NC(=O)C2CC(C(C)(C)C)=NN2CC)c1 (racemic) [Compound 269] |  | 35 |  |  |  | 100 |  |  |  |  |  |  | 75 | 80 |  | 100 |  | 20 | 30 | 100 | Morningglory plant response rating (morningglory; [15]): 20; Plant response rating, Nightshade (eastern black nightshade; 62 g ai/ha, scale 0 to 100): 90; Plant response rating, Nightshade (eastern black nightshade; 250 g ai/ha, scale 0-100): 100; Plant response rating, Nightshade (eastern black nightshade; [16]): 100; Plant response rating, Sunflower ([1]; 62 g ai/ha, scale 0 to 100): 0; Plant response rating, Sunflower ([1]; 250 g ai/ha, scale 0-100): 5; Plant response rating, Sunflower [1, 16]: 15; Rice plant response rating (rice; 62 g ai/ha, scale 0 to 100): 45; Rice plant response rating (rice; [17]): 50; Plant response rating, Bermudagrass (bermudagrass; [18]): 100; Plant response rating, Bermudagrass (bermudagrass; [19]): 100
3 | C=Cn1nc(C(C)(C)C)cc1C(=O)Nc1cccc(C(=O)N(CC)CC)c1 [Compound 34] | 10 | 20 | 35 | 50 | 10 |  | 90 | 0 |  | 0 | 0 | 0 |  | 55 | 20 |  | 90 |  |  | 100 | Nightshade plant response rating (eastern black nightshade; 500 g ai/ha): 100; Sunflower plant response rating ([1]; 500 g ai/ha): 0; Plant response rating, Rice (rice; 250 g ai/ha, scale 0 to 100 (0 no effect, 100 complete control)): 50; Plant response rating, Bermudagrass (bermudagrass; 125 g ai/ha, scale 0-100, preemergence): 50; Bermudagrass plant response rating (bermudagrass; Postemergence, 500 g ai/ha, scale 0 to 100): 50; Plant response rating, Bermudagrass (bermudagrass; Postemergence, 125 g ai/ha, scale 0 to 100, 0 no effect, 100 complete control): 40; Bermudagrass plant response rating (bermudagrass; Postemergence, 250 g ai/ha, scale 0 to 100): 50; Plant response rating, Bermudagrass (bermudagrass; postemergence, 62 g ai/ha, scale 0 to 100): 10
4 | CCN1CCc2c(NC(=O)c3cc(C(C)(C)C)nn3CC)cccc2C1=O [Compound 63] | 15 | 15 | 10 | 70 | 70 | 90 | 95 | 0 | 0 | 0 | 0 | 0 | 15 | 50 | 50 | 90 | 90 |  |  | 100 | Nightshade plant response rating (eastern black nightshade; 500 g ai/ha): 95; Sunflower plant response rating ([1]; 500 g ai/ha): 30
5 | CCNC(=O)c1ccc(F)c(NC(=O)c2cc(C3(C)CC3)nn2CC)c1 [Compound 300] |  | 95 |  |  |  | 100 |  |  |  |  |  |  | 70 | 75 |  | 100 |  | 80 | 100 |  | Morningglory plant response rating (morningglory; [15]): 90; Plant response rating, Nightshade (eastern black nightshade; 62 g ai/ha, scale 0 to 100): 100; Plant response rating, Nightshade (eastern black nightshade; 250 g ai/ha, scale 0-100): 100; Plant response rating, Sunflower ([1]; 62 g ai/ha, scale 0 to 100): 0; Plant response rating, Sunflower ([1]; 250 g ai/ha, scale 0-100): 5; Rice plant response rating (rice; 62 g ai/ha, scale 0 to 100): 40; Rice plant response rating (rice; [17]): 55; Plant response rating, Bermudagrass (bermudagrass; 31 g ai/ha, scale 0 to 100, 0 no effect, 100 complete control, last section of Table C (species set of preemergence test)): 80; Plant response rating, Bermudagrass (bermudagrass; [18]): 95; Plant response rating, Bermudagrass (bermudagrass; [19]): 100
